The results in this text go back to ChEMBL document CHEMBL1149566, “Himbacine derived thrombin receptor (PAR-1) antagonists: SAR of the pyridine ring” (Bioorg Med Chem Lett, 2007).

For data set [1], the target named is T1, Proteinase-activated receptor 1 (Homo sapiens, UniProt P25116).
T1 sequence (P25116 whole entry): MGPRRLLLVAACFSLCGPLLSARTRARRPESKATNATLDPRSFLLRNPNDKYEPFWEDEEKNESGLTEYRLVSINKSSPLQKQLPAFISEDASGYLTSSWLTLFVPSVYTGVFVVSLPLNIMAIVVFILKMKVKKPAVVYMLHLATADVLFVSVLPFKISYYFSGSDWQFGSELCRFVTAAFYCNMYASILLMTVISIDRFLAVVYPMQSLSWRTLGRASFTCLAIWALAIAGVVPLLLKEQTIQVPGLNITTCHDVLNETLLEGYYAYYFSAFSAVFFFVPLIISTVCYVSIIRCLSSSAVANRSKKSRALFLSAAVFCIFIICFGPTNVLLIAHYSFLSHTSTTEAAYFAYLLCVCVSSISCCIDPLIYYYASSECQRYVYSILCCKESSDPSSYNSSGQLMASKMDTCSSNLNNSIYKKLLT
As to the kind of experiment: (§1) Displacement of [3H]haTRAP from human PAR1 receptor in platelet membrane. It counts as cell membranes.

Data set [2] can be described thus: Cmax in rat. It counts as ADME, organism-based. As to conditions: in vivo.
Data set [3] can be described thus: AUC (0 to 4 hrs) in rat. On the set-up: time < 4 hr; concentration or dose not given beside the values. It counts as ADME, organism-based. As to conditions: plasma.
Data set [4] addresses T2, Proteinase-activated receptor 1 (Homo sapiens) (UniProt P25116).
T2 sequence (whole entry): T1 sequence (P25116 whole entry)
As to the kind of experiment: Displacement of [3H]haTRAP from human PAR1 receptor in platelet membrane at 1 uM. It counts as cell membranes. For orientation: In a radioligand displacement assay an active substance lowers the binding of a labelled ligand.

Data set [5] deals with Cannabinoid receptor 2 (Homo sapiens, UniProt P34972). Description: Binding affinity to cannabinoid CB2 receptor.
The target in data set [6] is T2, Proteinase-activated receptor 1 (Homo sapiens). Described as §1. It counts as cell membranes.
The subject of data set [7] is Cynomolgus monkey. As to the kind of experiment: Ex vivo inhibition of platelet aggregation in cynomolgus monkey at 3 mg/kg after 6 hrs. It counts as functional. As to conditions: Macaca fascicularis.
Data set [8] deals with Cynomolgus monkey. As to the kind of experiment: Ex vivo inhibition of platelet aggregation in cynomolgus monkey at 3 mg/kg up to 4 hrs. On the set-up: dose 3 mg/kg. It counts as functional, organism-based. As to conditions: Macaca fascicularis.

Activity calls are given as the source filed them. The rule behind the calls is not given here.

Sequence of Cannabinoid receptor 2 (P34972 whole entry): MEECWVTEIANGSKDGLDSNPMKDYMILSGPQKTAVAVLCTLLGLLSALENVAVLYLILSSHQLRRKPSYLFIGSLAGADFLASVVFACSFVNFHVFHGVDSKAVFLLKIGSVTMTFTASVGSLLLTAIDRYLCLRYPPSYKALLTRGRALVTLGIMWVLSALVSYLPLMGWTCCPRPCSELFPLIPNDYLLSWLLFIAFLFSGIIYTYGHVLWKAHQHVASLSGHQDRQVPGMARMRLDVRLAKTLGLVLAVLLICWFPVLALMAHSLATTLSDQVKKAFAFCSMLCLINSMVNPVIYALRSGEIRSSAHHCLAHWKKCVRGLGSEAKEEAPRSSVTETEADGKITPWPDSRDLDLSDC

By IC50 is commonly meant the concentration at which inhibition is half-maximal. As for `C[C@H]1OC(=O)[C@@H]2C[C@@H]3CCCC[C@H]3[C@H](/C=C/c3ccc(-c4cnccn4)cn3)[C@H]12`, the IC50 in data set [1] is 88 nM.
Still for that read-out and setting: the figure for `C[C@H]1OC(=O)[C@@H]2C[C@@H]3CCCC[C@H]3[C@H](/C=C/c3ccc(-c4ccncc4)cn3)[C@H]12` is 2140 nM.
What is called Cmax is the highest concentration seen after dosing. For orientation: AUC(0-t) means exposure summed from dosing to a finite time, without extrapolation to infinity. In data set [1], `C[C@H]1OC(=O)[C@@H]2C[C@@H]3CCCC[C@H]3[C@H](/C=C/c3ccc(-c4ccsc4)cn3)[C@H]12` (racemic) had an IC50 of 11 nM. The concentration in data set [2] peaked (Cmax) at 461 ng/mL. The area under the curve AUC(0-t) at 4 h in data set [3] came out at 434 ng·h/mL.
Molecule `C[C@H]1OC(=O)[C@@H]2C[C@@H]3CCCC[C@H]3[C@H](/C=C/c3ccc(-c4ccc[n+]([O-])c4)cn3)[C@H]12` showed a concentration for half-maximal inhibition (IC50) in data set [1] of 207 nM.
One may read the inhibition as how much of the control response was suppressed. In data set [4], `C[C@H]1OC(=O)[C@@H]2C=C3CCCC[C@H]3[C@H](/C=C/c3cnc4ccccc4c3)[C@H]12` had an inhibition of 45%.
The Ki is a dissociation constant, usually derived from enzyme kinetics or from competition with a known ligand. `C[C@H]1OC(=O)[C@@H]2C[C@@H]3CCCC[C@H]3[C@H](/C=C/c3ccc(N4CCCC4)cn3)[C@H]12` returned an IC50 in data set [1] of 29 nM. In data set [5], this molecule gave a Ki of 487 nM.
`C[C@H]1OC(=O)[C@@H]2C[C@@H]3CCCC[C@H]3[C@H](/C=C/c3ccc(-c4ncc[nH]4)cn3)[C@H]12` displayed an IC50 in data set [1] of 1320 nM.
As to `C[C@H]1OC(=O)[C@@H]2C[C@@H]3CCCC[C@H]3[C@H](/C=C/c3ccc(-c4ccco4)cn3)[C@H]12` (racemic), in data set [1], the half-maximal inhibitory concentration (IC50) is 12 nM.
As for `C[C@H]1OC(=O)[C@@H]2C=C3CCCC[C@H]3[C@H](/C=C/c3ccccc3)[C@H]12`, in data set [6], the outcome was inactive. Further, the inhibition in data set [4] was determined as 2%.
In general, inhibition in vivo refers to the share of the control response that was lost under treatment. In data set [1], `C[C@H]1OC(=O)[C@@H]2C[C@@H]3CCCC[C@H]3[C@H](/C=C/c3ccc(-c4cccnc4)cn3)[C@H]12` gave an IC50 of 22 nM. This molecule gave an inhibition in vivo at 3 mg/kg in data set [7] of 70%. Also, the Cmax in data set [2] came out at 1820 ng/mL. Further, the outcome in data set [8] was Active. For the same molecule, in data set [3], the AUC(0-t) at 4 h stood at 4230 ng·h/mL. This molecule gave a Ki in data set [5] of 13000 nM.
On to `Cc1cccc(/C=C/[C@@H]2[C@@H]3[C@@H](C)OC(=O)[C@@H]3C=C3CCCC[C@H]32)n1`, for which the IC50 in data set [1] was determined as 350 nM.
`C[C@H]1OC(=O)[C@@H]2C[C@@H]3CCCC[C@H]3[C@H](/C=C/c3ccc(-c4cccc(C(F)(F)F)c4)cn3)[C@H]12`: the result in data set [7] was Active. This molecule also gave a Cmax in data set [2] of 1130 ng/mL. The AUC(0-t) at 4 h in data set [3] was 3010 ng·h/mL.
`C[C@H]1OC(=O)[C@@H]2C=C3CCCC[C@H]3[C@H](/C=C/c3nccs3)[C@H]12` returned an inhibition in data set [4] of 14%.
`C[C@H]1OC(=O)[C@@H]2C[C@@H]3CCCC[C@H]3[C@H](/C=C/c3ccc(-c4ccccn4)cn3)[C@H]12` displayed an IC50 in data set [1] of 22 nM. The Cmax in data set [2] stood at 251 ng/mL. Also, the AUC(0-t) at 4 h in data set [3] turned out to be 509 ng·h/mL.
As to `C[C@H]1OC(=O)[C@@H]2C[C@@H]3CCCC[C@H]3[C@H](/C=C/c3ccc(-c4ccc(Cl)s4)cn3)[C@H]12` (racemic), the IC50 in data set [1] came to 36 nM. For the same molecule, in data set [2], the peak level (Cmax) was 343 ng/mL. Also, in data set [3], the AUC(0-t) at 4 h was determined as 1060 ng·h/mL.
Take `Cc1cccc(/C=C/[C@@H]2[C@@H]3[C@@H](C)OC(=O)[C@@H]3C=C3CCCC[C@H]32)c1`: in data set [6], the result was inactive.
Take `C[C@H]1OC(=O)[C@@H]2C[C@@H]3CCCC[C@H]3[C@H](/C=C/c3ccc(N4CCN(c5ccccc5)CC4)cn3)[C@H]12`: the 50% inhibitory concentration (IC50) in data set [1] worked out at 3300 nM.
Same read-out and setting: the figure for `C[C@H]1OC(=O)[C@@H]2C=C3CCCC[C@H]3[C@H](/C=C/c3ccc(-c4ccccc4)cn3)[C@H]12` is 43 nM.
As for `C[C@H]1OC(=O)[C@@H]2C=C3CCCC[C@H]3[C@H](/C=C/c3cnccn3)[C@H]12`, the inhibition in data set [4] is 1%.
As for `Cc1nc(/C=C/[C@@H]2[C@@H]3[C@@H](C)OC(=O)[C@@H]3C=C3CCCC[C@H]32)ccc1-c1ccccc1`, in data set [1], the IC50 is 130 nM.
`C[C@H]1OC(=O)[C@@H]2C[C@@H]3CCCC[C@H]3[C@H](/C=C/c3ccc(N4CCN(C)CC4)cn3)[C@H]12` showed an inhibition in data set [4] of 12%.
Consider `CCc1ccc(/C=C/[C@H]2[C@@H]3CCCC[C@H]3C[C@H]3C(=O)O[C@H](C)[C@@H]23)nc1`, for which the IC50 in data set [1] came out at 263 nM.
As for `C[C@H]1OC(=O)[C@@H]2C=C3CCCC[C@H]3[C@H](/C=C/c3nc4ccccc4o3)[C@H]12`, the inhibition in data set [4] was 38%.
The molecule `C[C@H]1OC(=O)[C@@H]2C[C@@H]3CCCC[C@H]3[C@H](/C=C/c3ccc(C4CCCC4)cn3)[C@H]12` returned an IC50 in data set [1] of 115 nM.
Turning to `C[C@H]1OC(=O)[C@@H]2C=C3CCCC[C@H]3[C@H](/C=C/c3cncnc3)[C@H]12`, the inhibition in data set [4] amounted to 5%.
In data set [2], `C[C@H]1OC(=O)[C@@H]2C[C@@H]3CCCC[C@H]3[C@H](/C=C/c3ccc(-c4ccccc4)cn3)[C@H]12` registered a Cmax of 223 ng/mL. In addition, the AUC(0-t) at 4 h in data set [3] amounted to 451 ng·h/mL.
`C[C@H]1OC(=O)[C@@H]2C[C@@H]3CCCC[C@H]3[C@H](/C=C/c3ccc(-c4nccs4)cn3)[C@H]12` had an IC50 in data set [1] of 47 nM.
In data set [1], `C[C@H]1OC(=O)[C@@H]2C=C3CCCC[C@H]3[C@H](/C=C/c3ccccn3)[C@H]12` came in with an IC50 of 3600 nM. Also, the inhibition in data set [4] came out at 16%.
`C[C@H]1OC(=O)[C@@H]2C[C@@H]3CCCC[C@H]3[C@H](/C=C/c3ccc(N4CCOCC4)cn3)[C@H]12`: the IC50 in data set [1] was 440 nM.
`C[C@H]1OC(=O)[C@@H]2C=C3CCCC[C@H]3[C@H](/C=C/c3cccnc3)[C@H]12` displayed an inhibition in data set [4] of 11%.
`C[C@H]1OC(=O)[C@@H]2C[C@@H]3CCCC[C@H]3[C@H](/C=C/c3ccc(-c4cncn4C)cn3)[C@H]12`: in data set [1], the IC50 was 145 nM.
For the molecule `CCc1nc(/C=C/[C@@H]2[C@@H]3[C@@H](C)OC(=O)[C@@H]3C=C3CCCC[C@H]32)ccc1-c1ccccc1`, the IC50 in data set [1] came out at 285 nM.
Molecule `C[C@H]1OC(=O)[C@@H]2C[C@@H]3CCCC[C@H]3[C@H](/C=C/c3ccc(-c4cccs4)cn3)[C@H]12` (racemic) gave an IC50 in data set [1] of 16 nM. For the same molecule, the peak concentration (Cmax) in data set [2] came out at 109 ng/mL. Further, in data set [3], the AUC(0-t) at 4 h was 160 ng·h/mL.
